Laboratory results reported in ChEMBL document CHEMBL3797172, “Structure Property Relationships of Carboxylic Acid Isosteres” (J Med Chem, 2016).
≈ marks a conversion by molar mass, not a printed value.

What was measured:
[1] = Dissociation constant, pKa of the compound at 100 uM by capillary electrophoresis; format: physicochemical; details: for pKa: 100 µM
[2] = Effective permeability of compound assessed as membrane retention at pH 7.4 at 200 uM after 5 hrs by PAMPA relative to control; format: ADME; details: pH 7.4, 5 h
[3] = Percentage unbound in human plasma at 5 uM after 6 hrs by equilibrium dialysis method; format: ADME, cell-free; details: for Fu: 6 h, 5 µM
[4] = physchem; details: aqueous phosphate buffer, pH 7.4
[5] = octanol/water, pH 7.4, 1 h
[6] = Effective permeability of compound at pH 7.4 at 200 uM after 5 hrs by PAMPA; format: ADME; details: for Papp at 5 h, 200 µM: PAMPA, pH 7.4, read-out: Peff; for Peff: pampa, pH 7.4, 5 h, 200 µM, BLD = below limit of detection
[7] = buffer, pH 7.4, 24 h, 200 µM
[8] = physchem; details: 1-octanol/aqueous buffer, pH 7.4
[9] = Apparent permeability of compound at pH 7.4 at 200 uM by PAMPA; format: physicochemical; details: pH 7.4, 200 µM, BLD = below limit of detection

Structure (SMILES)	R% [2]	Fu [3]	solubility kinetic at 24 h, 200 µM [4]	logD [5]	further results
CS(=O)(=O)NCCCc1ccccc1	8.1%	37.27%	≥ 200 µM	1.42	pKa [1]: > 12
O=C(CCc1ccccc1)NO	0.03%	29%	≥ 200 µM	0.71	–
O=C1NC(=O)C(Cc2ccccc2)O1 (stereo unspecified)	-0.6%	14%	≥ 200 µM	-0.16	–
O=P(O)(O)CCc1ccccc1	-2.7%	31%	152 µM (≈ 28.4 µg/mL)	–	Papp at 5 h, 200 µM [6]: 0.094 ×10⁻⁶ cm/s
CC(=O)N(O)CCc1ccccc1	1.1%	37%	≥ 200 µM	1.52	–
O=C1NC(=O)C(Cc2ccccc2)S1 (stereo unspecified)	5.5%	3.4%	200 µM (≈ 41.5 µg/mL)	1.07	–
Oc1c(F)ccc(Cc2ccccc2)c1F	-32%	0.52%	149 µM (≈ 32.7 µg/mL)	3.56	–
CC(=O)NOCCc1ccccc1	-2.9%	64%	200 µM (≈ 35.8 µg/mL)	1.18	Papp at 5 h, 200 µM [6]: 4.6 ×10⁻⁶ cm/s
[O-][S+](Cc1ccccc1)c1ccccc1O (stereo unspecified)	1.1%	12%	≥ 200 µM	2.16	–
Oc1ccccc1SCc1ccccc1	–	–	–	> 3.78	Kinetic_solubility [7]: ND(Unstable)
CS(=O)(=O)NC(=O)NCc1ccccc1	3%	31%	198 µM (≈ 45.1 µg/mL)	-1.23	–
Oc1c(F)cc(Cc2ccccc2)cc1F	49%	0.26%	109 µM (≈ 24 µg/mL)	3.34	–
Oc1cc(Cc2ccccc2)on1	-11%	0.1%	≥ 200 µM	0.46	–
CONC(=O)CCc1ccccc1	5.3%	68%	≥ 200 µM	1.16	–
CC1=C(O)CC(Cc2ccccc2)C1=O (stereo unspecified)	-5.1%	–	> 200 µM	–	pKa at 100 µM [1]: 4.47; fraction unbound at 6 h, 5 µM [3]: 0.111; Papp at 5 h, 200 µM [6]: 0.26 ×10⁻⁶ cm/s; logD at 1 h [8]: -0.33
O=c1[nH]c(CCc2ccccc2)no1	-4%	1.1%	≥ 200 µM	0.32	–
NS(=O)(=O)CCc1ccccc1	4.2%	60.72%	≥ 200 µM	0.96	–
O=C1C=C(O)CC1Cc1ccccc1 (stereo unspecified)	-3%	7.96%	195 µM (≈ 36.7 µg/mL)	-0.7	–

Structure (SMILES)	R% [2]	Fu [3]	solubility kinetic at 24 h, 200 µM [4]	logD [5]	further results
O=c1[nH]c(CCc2ccccc2)ns1	-0.7%	1.17%	200 µM (≈ 41.4 µg/mL)	1.66	–
O=S(=O)(Cc1ccccc1)c1ccccc1O	7.2%	1.59%	197 µM (≈ 48.9 µg/mL)	1.76	–
O=c1c(O)c(Cc2ccccc2)c1=O	-13%	8.19%	166 µM (≈ 31.2 µg/mL)	-0.84	pKa [1]: < 2; Peff [6]: BLD; logPapp [9]: BLD
O=C1CC(c2ccccc2)C=C1O (stereo unspecified)	-8.6%	–	192 µM (≈ 33.5 µg/mL)	1.71	–
c1ccc(CCc2nnn[nH]2)cc1	4.7%	1.12%	≥ 200 µM	-0.25	–
CS(=O)(=O)NC(=O)CCc1ccccc1	1.4%	12.8%	200 µM (≈ 45.4 µg/mL)	–	–
CN(C)S(=O)(=O)NC(=O)CCc1ccccc1	2.2%	8.1%	199 µM (≈ 51 µg/mL)	0.17	pKa [1]: 5.86
O=[PH](O)CCc1ccccc1	-2.1%	8.86%	128 µM (≈ 21.7 µg/mL)	–	–
O=C1CCC(Cc2ccccc2)=C1O	1.5%	16%	195 µM (≈ 36.7 µg/mL)	1.85	–
O=S([O-])CCc1ccccc1.[Na+]	-6.8%	5%	≥ 200 µM	-1.3	Peff [6]: BLD; logPapp [9]: BLD
S=c1[nH]c(CCc2ccccc2)no1	-3.4%	0.65%	≥ 200 µM	-0.25	–
O=C1CC(=O)C(Cc2ccccc2)N1 (stereo unspecified)	1.3%	–	≥ 200 µM	-0.35	Papp at 5 h, 200 µM [6]: 2.5 ×10⁻⁶ cm/s
O=S(=O)([O-])CCc1ccccc1.[Na+]	-6.1%	0.31%	≥ 200 µM	-1.45	pKa [1]: < 2
O=c1c(O)c(NCc2ccccc2)c1=O	-6.6%	6.45%	≥ 200 µM	–	pKa [1]: < 2
O=C1CCC(O)=C1Cc1ccccc1	-8.8%	14.3%	199 µM (≈ 37.5 µg/mL)	-0.6	–
O=C(O)CCc1ccccc1	-7%	9.5%	111 µM (≈ 16.6 µg/mL)	–	–
CC(=O)NC(=O)NCc1ccccc1	-3.3%	77%	≥ 200 µM	1.42	pKa [1]: > 12
